In patent US20100119530A1, “Regulation of TLR Signaling by Complement” (priority 2007, published 2010):

Experiments:
C3a receptor (C3aR) = molecular target: T1, C3a receptor (C3aR) (Mus musculus, UniProt O09047); assay: LPS-induced plasma IL-6 in DAF−/− mice treated with C3a receptor antagonist; format: in vivo; conditions: 30 mg/kg i.p. 30 minutes before LPS
T1 construct: Effect of a C3a receptor antagonist (C3aRa) and a C5a receptor antagonist (C5aRa) on LPS-induced plasma IL-6 levels in DAF^−/− mice; from tissue; host or cells: living C57BL/6 DAF-/- mice (whole animal)
T1 sequence (O09047 1-477): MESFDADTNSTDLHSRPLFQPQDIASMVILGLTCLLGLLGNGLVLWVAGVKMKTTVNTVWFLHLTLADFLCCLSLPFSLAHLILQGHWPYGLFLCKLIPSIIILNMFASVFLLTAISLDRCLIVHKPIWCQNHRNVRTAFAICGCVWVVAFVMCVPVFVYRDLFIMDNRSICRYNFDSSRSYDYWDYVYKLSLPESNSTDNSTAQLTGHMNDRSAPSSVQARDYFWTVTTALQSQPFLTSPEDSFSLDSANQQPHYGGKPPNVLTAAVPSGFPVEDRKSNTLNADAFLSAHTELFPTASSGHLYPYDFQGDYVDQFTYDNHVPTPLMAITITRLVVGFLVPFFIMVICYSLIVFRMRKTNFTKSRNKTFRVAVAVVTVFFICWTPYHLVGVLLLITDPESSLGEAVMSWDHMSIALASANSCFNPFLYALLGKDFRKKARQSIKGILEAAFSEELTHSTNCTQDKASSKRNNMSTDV
Protocol: (§1) Mice were injected with the following TLR ligands: LPS (20 mg/kg in PBS, i.p.), zymosan (1 g/kg in 0.9% saline, i.p.), CpG (20 mg/kg in PBS, i.p.). In some experiments, mice were also treated with CVF (15 U/mouse in saline, i.p.), SB290157 (30 mg/kg in 20% polyethylene glycol 400 in saline, i.p.), AcPhe (50 μg/mouse in PBS, i.p.). EDTA (20 mM) anti-coagulated blood samples were collected from the tail vein or vena cava. Plasma was prepared by centrifugation at 1000×g for 15 min at 4° C. and stored as small aliquots at −80° C.

naive CD4 T cells = assay: Th-17 differentiation of purified naive CD4 T cells (anti-CD3/CD28) with cytokines or mouse sera, FACS; format: cell-based, mice; conditions: for Th-17 differentiation driven by serum of mice treated with the substance alone: naive CD4 T cells from wild-type mice, plate-bound anti-CD3 and CD28; for Th-17 differentiation, cytokine alone: cells treated with the cytokine alone; for Effect of co-treatment on Th-17 differentiation driven by serum of LPS-treated mice: serum of mice co-treated with LPS and the substance
Text: To test whether the CVF-augmented inflammatory cytokine production promotes Th-17 differentiation, purified naive CD4 T cells from wild-type mice were stimulated in vitro with plate-bound anti-CD3 and CD28 in the presence of specific cytokines or sera of control (naive mouse) or LPS-, CVF-treated mice. […] The augmenting effect of CVF on LPS-dependent Th-17 differentiation required C3 and C5aR but not C3aR.
The ability of C5a-induced augmentation of serum inflammatory cytokine production to promote Th-17 differentiation was assessed. Purified naive CD4 T cells from wild-type mice were stimulated in vitro with plate-bound anti-CD3 and CD28 in the presence of specific cytokines or sera of control (naive mouse) or LPS-, C5a-treated mice. […] Treatment of the cells with IL-6 alone or TGF-β alone had no effect on Th-17 differentiation. […] Thus the augmenting effect of C5a on LPS-dependent Th-17 differentiation required C5aR. These findings indicate that complement activation products, particularly C5a, synergize with the TLR activation pathway to augment inflammatory cytokine production. The complement system, through interaction with TLR, augments Th-17 differentiation and therefore plays a role in autoimmune tissue injury. FIGS. 8-11 provide evidence for this conclusion. Thus, inhibiting complement activation is a therapeutic approach for treating Th-17 T cell mediated autoimmune diseases such as multiple sclerosis, Lupus, inflammatory bowel disease, GvHD and transplant rejection.

[1] = Measurement of plasma LPS levels (Pyrochrome Kit) after LPS injection; format: in vivo, mice; conditions: 3 hours after LPS injection (20 mg/kg i.p.), n=12
Protocol: as §1
Plasma LPS levels were determined using the Pyrochrome Kit from Associates of CAPE COD Incorporated (East Falmouth, Mass.). Plasma samples were treated at 70° C. for 10 minutes before assays to heat-inactivate serine proteases. Levels were expressed as units/ml of endotoxin.

C5a receptor (C5aR) = molecular target: T2, C5a receptor (C5aR) (Mus musculus, UniProt P30993); assay: LPS-induced plasma IL-6 in DAF−/− mice treated with C5a receptor antagonist; format: in vivo; conditions: 50 μg/mouse i.p. 30 minutes before LPS
T2 construct: from tissue; host or cells: living mice (A4: C57BL/6 DAF-/-; A12: wild-type, with C5aR-/- mice as control)
T2 sequence (P30993 1-351): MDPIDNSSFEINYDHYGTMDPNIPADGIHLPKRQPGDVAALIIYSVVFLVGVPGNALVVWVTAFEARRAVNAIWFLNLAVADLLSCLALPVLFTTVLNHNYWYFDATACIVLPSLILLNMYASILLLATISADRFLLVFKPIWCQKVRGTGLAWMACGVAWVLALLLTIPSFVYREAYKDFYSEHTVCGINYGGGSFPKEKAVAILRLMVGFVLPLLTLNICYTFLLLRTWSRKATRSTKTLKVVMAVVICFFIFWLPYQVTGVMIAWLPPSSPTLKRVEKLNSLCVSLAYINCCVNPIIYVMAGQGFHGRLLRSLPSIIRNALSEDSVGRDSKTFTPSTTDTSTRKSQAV
Protocol: as §1

[2] = system: C3 activation fragments (C3b/iC3b/C3c); assay: Complement activation assay (sandwich ELISA of plasma C3 activation fragments); format: in vivo; conditions: plasma samples of CpG-treated mice
Protocol: Levels of C3 activation fragments (C3b/iC3b/C3c) in plasma were measured by a sandwich ELISA. For quantification purposes, 1/500 serial dilutions of CVF-activated WT mouse plasma (prepared by adding 2.5 μg (1.2 units) of CVF to 50 μl plasma and incubating for 1 h at 37° C.) were used as a reference, and complement activation in all testing samples was normalized to this reference sample.

TLR4 signaling = assay: Plasma cytokine ELISA in mice after LPS, CVF or LPS/CVF treatment; format: in vivo; conditions: 3 hours; for Reduction of LPS-induced IL-12p40 by CVF treatment: LPS/CVF vs LPS
Protocol: as §1

TLR9 = assay: Plasma cytokine ELISA in mice after CpG, CVF or CpG/CVF treatment; format: in vivo; conditions: wild-type mice, CVF co-treatment with CpG
Protocol: as §1

TLR2/6 signaling = assay: Plasma cytokine ELISA in mice after zymosan or zymosan/CVF treatment; format: in vivo; conditions: wild-type mice co-treated with zymosan and CVF, 3 hours
Protocol: as §1

[3] = system: LPS-induced cytokine production; assay: Serum cytokine concentrations in mice treated with TLR and/or complement activators; format: in vivo; conditions: mice co-treated with LPS and CVF
Protocol: A set of experiment was conducted to measure serum concentrations of cytokines in mice untreated (NT) or treated with TLR and/or complement activators. […] On the other hand, CVF reduced LPS-induced IL-12 production (FIG. 8). Thus, the effect of CVF on LPS-induced cytokine production is dependent on complement C3 and C5aR but not C3aR signaling.

C5aR [4] = molecular target: T3, C5aR (Mus musculus, UniProt P30993); assay: Synergistic effect of C5a with LPS on serum IL-6 in mice; format: in vivo
T3 construct: from tissue; host or cells: living mice (A4: C57BL/6 DAF-/-; A12: wild-type, with C5aR-/- mice as control)
T3 sequence (P30993 1-351): T2 sequence (P30993 1-351)
Protocol: (§2) Next, the Synergistic effect of C5a with LPS in augmenting IL-6 production was tested. Instead of using the complement activator CVF, the complement activation product C5a was directly tested for its activity to synergize with LPS in IL-6 production. […] CVF treatment by itself has no effect on IL-6 production. Thus, the synergistic activity of C5a required C5aR as such an effect was not observed in C5aR^−/− mice (FIG. 10).

[5] = system: NF-kB luciferase reporter gene in RAW264.7 cells; assay: NF-kB luciferase reporter gene assay and TNF-α ELISA in transfected RAW 264.7 cells; format: cell-based, murine; conditions: transfected RAW264.7 cells
Text: RAW 264.7 cells were co-transfected with NF-kB Luc (Clontech, Palo Alto, Calif.), human C5aR in pcDNA3 (UMA cDNA resource center, Rolla, Mo.) and the Rellina control vector (Promega, Madison, Wis.) using the Amaxa Nucleofector apparatus (Amaxa Biosystems, Germany). The RAW 264.7 cells expressed detectible levels of endogenous C5aR as assessed by FACS and RT-PCR. After transfection, they also became weakly positive for human C5aR as assessed by FACS. […] Cell culture supernatants were collected for IL-6 and TNF-α assays by ELISA. All assays were performed in triplicates.

C5aR [6] = assay: Synergistic effect of C5a with LPS on serum IL-6 in mice; format: in vivo; conditions: C5aR−/− mice
Protocol: as §2

[7] = wild-type mice, CVF co-treatment with LPS
[8] = wild-type mice, CVF treatment alone

## NC(N)=NCCC[C@H](NC(=O)COCC(c1ccccc1)c1ccccc1)C(=O)O [SB 290157]
C3a receptor (C3aR)
  Effect on the increase in LPS-induced IL-6 production: significantly (p<0.001) attenuated

## lipopolysaccharide [LPS]
Naive CD4 T cells
  Th-17 differentiation driven by serum of mice treated with the substance alone: active in driving Th-17 differentiation
[1]; DAF−/− mice
  Plasma LPS concentration: 1200±307 EU/ml
[1]; wild-type mice
  Plasma LPS concentration: 925±413 EU/ml

## AcPhe
C5a receptor (C5aR)
  Effect on the increase in LPS-induced IL-6 production: totally blocked

## TGF-β
Naive CD4 T cells
  Th-17 differentiation, cytokine alone: no effect

## CpG 1826 (5′-TCCATGACGTFCCTGACGTT-3′)
[2]
  Complement activation in plasma: detectable complement activation

## Cobra venom factor [CVF]
TLR4 signaling; IL-10−/− mice
  Reduction of LPS-induced IL-12p40 by CVF treatment: 22%
TLR4 signaling; LPS/CVF-treated wild-type mice compared with LPS- or CVF-treated wild-type mice
  Plasma IL-10 level: strikingly elevated
TLR4 signaling; [7]
  Effect on LPS-induced plasma IL-6: greatly increased
  Effect on LPS-induced plasma IL-12p40: decreased
TLR4 signaling; [8]
  Effect on IL-6 production: negligible effect
  Effect on IL-12p40 production: negligible effect
TLR4 signaling; wild-type mice
  Reduction of LPS-induced IL-12p40 by CVF treatment: 87%
TLR9
  Effect on CpG-induced IL-1β production: no significant impact
  Effect on CpG-induced TNF-α production: no significant impact
TLR9; 3 hours
  Effect on CpG-induced IL-6 production: no significant impact
  Effect on CpG-induced IL-12p40 production: markedly suppressed
TLR2/6 signaling
  Effect on zymosan-induced IL-6 production: Markedly increased
  Effect on zymosan-induced IL-12p40 production: decreased
[3]
  Effect on LPS-induced IL-12 production: reduced
  Effect on LPS-induced serum IL-1β: augmented
  Effect on LPS-induced serum IL-6: augmented
  Effect on LPS-induced serum TNF-α: augmented
C5aR [4]; mice co-treated with LPS, compared with LPS alone
  Serum IL-6 level: greatly elevated
C5aR [4]; treatment by itself, without LPS
  Effect on IL-6 production: no effect
Naive CD4 T cells
  Th-17 differentiation driven by serum of mice treated with the substance alone: unable to drive Th-17 differentiation
  Effect of co-treatment on Th-17 differentiation driven by serum of LPS-treated mice: strongly augmented

B1: C5a: recombinant human C5a from Sigma-Aldrich; complement activation product, anaphylatoxin (protein, UniProt P01031 678-751, looked up)
C5a anaphylatoxin: TLQKKIEEIAAKYKHSVVKKCCYDGACVNNDETCEQRAARISLGPRCIKAFTECCVVASQLRANISHKDMQLGR
modifications: C5a anaphylatoxin
[5]; C5a (50 nM) with LPS (1000 ng/ml) per FIG. 4D legend
  Secretion of endogenous TNF-α: synergized with LPS
[5]; C5a alone
  Secretion of endogenous TNF-α: negligible effect on its own
C5aR [6]
  Synergistic effect with LPS on IL-6 production: not observed
Naive CD4 T cells
  Th-17 differentiation driven by serum of mice treated with the substance alone: unable to drive Th-17 differentiation
  Effect of co-treatment on Th-17 differentiation driven by serum of LPS-treated mice: strongly augmented

B2: IL-6: cytokine added to naive CD4 T cell cultures to drive Th-17 differentiation (protein, UniProt P08505 25-211, looked up)
Interleukin-6: FPTSQVRRGDFTEDTTPNRPVYTTSQVGGLITHVLWEIVEMRKELCNGNSDCMNNDDALAENNLKLPEIQRNDGCYQTGYNQEICLLKISSGLLEYHSYLEYMKNNLKDNKKDKARVLQRDTETLIHIFNQEVKDLHKIVLPTPISNALLTDKLESQKEWLRTKTIQFILKSLEEFLKVTLRSTRQT
Naive CD4 T cells; IL-6 in the presence of TGF-β
  Th-17 differentiation in the presence of TGF-β: differentiated into Th-17 cells
Naive CD4 T cells
  Th-17 differentiation, cytokine alone: no effect
